Entries after “also recorded” stand apart in the source; their conditions may differ. Where a SMILES comes first, the peptide text is derived from it. The star is where a group is joined. FITC = O=C1OC2(c3ccc(O)cc3Oc3cc(O)ccc32)c2ccc(NC(=S)*)cc21
How the values were obtained:
Type in all cases: cell-based
[1] = system: HCV genotype 1; assay: HCV replication (HCV RNA expression) in serum-derived HCV-infected human hepatocyte cultures
Description: (§1) Sera from 25 HCV-infected patients and 3 control subjects were obtained at the VA San Diego Healthcare System Clinical Laboratory. The subject population included individuals with chronic HCV infection, viral load>200,000 IU/ml and genotypes 1 (N: 15), 2 (N: 3), 3 (N: 4), or 4 (N: 3), but negative for Hepatitis A and B, CMV and HIV. Control sera were obtained from subjects negative for Hepatitis A, B and C, CMV and HIV. In different experiments, the inoculums fluctuated between 3,728 and 68,000 HCV viral particles.
(§2) The hepatocytes were cultured for serum-derived HCV infection under the following conditions: 1) the matrix was rat-tail collagen (BD); 2) the collagen matrix was prepared within 24 hr of hepatocyte plating, at a concentration of 50 μg/ml or greater; 3) the culture plates were coated with polylysine; 4) the rinsing of the matrix was minimal; 5) the suspended hepatocytes were allowed to attach in 20% fetal calf serum for not more than 18 hr; 6) the hepatocyte-specific media was given for at least 24 hr prior to the HCV infection; 7) the hepatocytes were >85% confluent until the time of infection; 8) hepatocyte cultures with >5% apoptosis by annexin-V assays and/or increases>3-fold in ALT were discarded; and 9) hepatocyte media was added every 48 hr.
(§3) Total RNA was isolated from HCV infected primary human hepatocytes using the Ultraspec TM-II RNA kit from Biotecx Inc. (Texas) following the manufacturers protocol. The cDNA synthesis was performed using Stratascript RT MMuLV RNAse H free and Stratascript RT buffer (Stratagene), per manufacturers protocol, using:
(§4) PCR was performed on the cDNA using the cDNA reaction mixture with Qiagen's HotStar High Fidelity polymerase. Amplicons were run on 2% TBE agarose gels and imaged on a KODAK Imaging station.

[2] = system: HCV genotype 3; assay: as above; conditions: peptide 90 μM (text: picomolar), treated 4 hr after the HCV infection (FIG. 13F)
Description: as §1, §2, §3, §4

[3] = system: HCV genotype 4; assay: as above; conditions: peptide 90 μM (text: picomolar), treated 4 hr after the HCV infection (FIG. 13F)
Description: as §1, §2, §3, §4

[4] = system: endogenous AP-50 phosphorylation on Thr156; assay: confocal microscopy of AP-50 phosphoT156 in HCV-infected human hepatocyte cultures; conditions: HCV genotype 1-infected human hepatocyte cultures, 72 hr, epitope specific antibodies (FIG. 13D)
Experimental: (§5) Fluorescent labels were observed using a triple-channel fluorescence microscope or a confocal microscope. Fluorochromes utilized included TOPRO-3 (blue), Alexa 488 (green) and Alexa 594 (red) (Molecular Probes). The percentage of HCV infected hepatocytes was determined by confocal microscopy using HCV E2 and core specific antibodies (Buck, et al., Mol. Cell. 8, 807 (2001); Rudel et al., Science 276, 1571 (1997). AP-50 and AP-50-phosphoT^157 were detected with specific antibodies (Zhang et al., Traffic 6, 1103 (2005); Smythe, Nature 431, 641 (2004)). At least 100 cells were analyzed per experimental point (Buck et al. EMBO J 20, 6712 (2001)). The nuclear morphology were analyzed by staining cells with TOPRO-3 ([…]). Two observers analyzed each immunofluorescent study.
(§6) Primary hepatocytes were fixed with 50/50 acetone/methanol at −20° C. for 20 minutes and allowed to air dry at room temperature. Blocking of non-specific epitopes was done with PBS+3% BSA for 30 minutes at room temperature. Primary antibodies were used at 1:100 dilutions in PBS+3% BSA, for 1 hour at room temperature washes were done with PBS. […] At least 100 cells were analyzed per experimental point. We analyzed the nuclear morphology by staining cells with TO-PRO-3 (Molecular Probes). […]

[5] = system: human hepatocytes; assay: cell toxicity by release of lactic dehydrogenase (LDH) into the medium
Experimental: Toxicity of AP-50 peptides to human hepatocyte cultures was determined by measuring lactic dehydrogenase (Sigma) in the medium.

[6] = system: HCV-infected human hepatocytes; assay: confocal microscopy of FITC-labelled peptide: cell entry and association with HCV E2
Experimental: as §5, §6

## CC(C)[C@H](NC(=O)[C@H](CCC(N)=O)NC(=O)[C@H](CCCNC(=N)N)NC(=O)[C@H](CCCNC(=N)N)NC(=O)[C@H](CCCNC(=N)N)NC(=O)[C@H](CCC(N)=O)NC(=O)[C@H](CCCNC(=N)N)NC(=O)[C@H](CCCNC(=N)N)NC(=O)[C@H](CCCCN)NC(=O)[C@H](CCCCN)NC(=O)[C@H](CCCNC(=N)N)NC(=O)CNC(=O)[C@H](Cc1ccc(O)cc1)NC(=O)CNC(=O)CNC(=O)CNC(=O)CNC(=S)Nc1ccc2c(c1)C(=O)OC21c2ccc(O)cc2Oc2cc(O)ccc21)C(=O)N[C@@H](C)C(=O)NCC(=O)N[C@@H](CCC(N)=O)C(=O)O [AP-50 peptide] ({FITC}-GGGGYGRKKRRQRRRQVAGQ-OH; N-terminus and C-terminus assumed)
[1]; peptide 90 pM, 72 hr, given at time zero of the infection (FIG. 13E)
  HCV replication, detected by expression of HCV RNA: blocked HCV replication; also recorded: inhibited HCV replication
[1]; peptide 90 μM (text: picomolar), treated 4 hr after the HCV infection (FIG. 13F)
  HCV replication, detected by expression of HCV RNA at 72 hr: inhibited HCV replication
[2]
  HCV replication, detected by expression of HCV RNA at 72 hr: inhibited HCV replication
[3]
  HCV replication, detected by expression of HCV RNA at 72 hr: inhibited HCV replication
[4]
  phosphorylation of endogenous AP-50 on Thr156: inhibited the phosphorylation; also recorded: blocked phosphorylation
[5]; human hepatocytes infected with HCV genotypes 1, 3 or 4, 72 hr, relative to control (FIG. 14)
  LDH values / viability of HCV-infected hepatocytes treated with peptide: improving the viability; also recorded: normalized
[5]; human hepatocytes treated with peptide for 72 hr (FIG. 14)
  cellular toxicity (LDH release into the medium): not toxic
[6]; HCV-infected human hepatocytes, 72 hr (FIG. 13B)
  association with HCV E2 in cells (confocal microscopy, merge): associated with HCV E2
[6]; human hepatocytes, 72 hr, HCV genotype 1 (FIG. 13B)
  cell permeability (intracellular FITC fluorescence): cell permeable; also recorded: intracellular

— US20090220490A1, “Compositions and Assays for Inhibiting HCV Infection” (priority 2006, published 2009)
